{
  "source": "patent US20160002596A1",
  "about": "“COMPOSITION FOR EX VIVO CULTURING OF A CORNEAL ENDOTHELIAL CELL AND A METHOD FOR USING THE COMPOSITION” (National Taiwan University, priority 2014, published 2016)",
  "format_in_all_cases": "cell-based, bovine",
  "key": {"[1]": {"system": "corneal endothelial cells", "experiment": "Phenotype (cell shape) of ex vivo cultured corneal endothelial cells, immunofluorescence staining against active beta-catenin"}, "[2]": {"system": "active beta-catenin (ABC)", "experiment": "Western blot of active beta-catenin (ABC) expression in corneal endothelial cells", "procedure": "With reference to FIG. 5, FIG. 5 was the Western blot analysis showing the expression level of active beta-catenin (ABC) in corneal endothelial cells treated with different concentrations of Marimastat or ADAM10 (ADAM metallopeptidase domain 10) specific inhibitor GI254023X. In group 1-3, the corneal endothelial cells were incubated in the SHEM added with 100 nM, 1 uM or 10 uM of GI254023X, respectively. In group 4-6, cells were incubated in the SHEM added with 100 nM, 1 uM or 10 uM of Marimastat, respectively. In group 1-3, there was no reduction in the expression level of ABC in the presence of ADAM10 specific inhibitor, GI254023X. In group 4, ABC expression level was high despite 100 nM of Marimastat."}, "[3]": {"system": "corneal endothelial cells", "experiment": "Growth / proliferation of ex vivo cultured corneal endothelial cells", "from_the_text": "Y-27632 is a known growth stimulator for corneal endothelial cells that is able to increase the ex vivo cell proliferation."}},
  "data": [
    {"smiles": "CNC(=O)[C@@H](NC(=O)[C@H](CC(C)C)[C@H](O)C(=O)NO)C(C)(C)C", "note": "[Marimastat]", "values": [
      {"measurement": "cell morphology of cultured corneal endothelial cells", "setting": "[1]; group 2 or 4: SHEM with 10 uM MMPI (without or with 10 uM Y-27632) for 9 days", "value": "maintained hexagonal morphology"},
      {"measurement": "expression level of active beta-catenin (ABC)", "setting": "[2]; group 4: 100 nM in SHEM", "value": "high"},
      {"measurement": "expression level of active beta-catenin (ABC)", "setting": "[2]; more than 1 uM in SHEM (groups 5-6: 1 uM, 10 uM)", "value": "significantly reduced"},
      {"measurement": "cell growth of corneal endothelial cells", "setting": "[3]; groups 2, 4 and 6: 10 uM MMPI added in the SHEM", "value": "not obviously inhibited or reduced"}
    ]},
    {"smiles": "CNC(=O)[C@@H](NC(=O)[C@H](CCCc1ccccc1)[C@H](C)N(O)C=O)C(C)(C)C", "note": "[GI254023X]", "values": [
      {"measurement": "expression level of active beta-catenin (ABC)", "setting": "[2]; group 1-3: 100 nM, 1 uM or 10 uM in SHEM", "value": "no reduction"}
    ]},
    {"smiles": "C[C@@H](N)[C@H]1CC[C@H](C(=O)Nc2ccncc2)CC1", "note": "[Y-27632]", "values": [
      {"measurement": "cell shape of cultured corneal endothelial cells", "setting": "[1]; group 3 or 5: SHEM with 10 uM Y-27632 (9 days, or first 3 days only)", "value": "elongated and fibroblast-like"},
      {"measurement": "proliferation of corneal endothelial cells", "setting": "[3]; group 3 or 5: SHEM with 10 uM Y-27632", "value": "enhanced proliferation"}
    ]}
  ]
}
